The source of these data is patent publication US9174949B2, “Hedgehog inhibitors” (SELEXAGEN THERAPEUTICS, INC., priority 2010, dated 2015).

Assay [1] has as its system hedgehog pathway signaling. In words: Modified Method A: purmorphamine stimulated alkaline phosphatase activity in C3H10T1/2 cells. The assay is classed as cell-based. Particulars: Mus musculus, C3H 10T1/2, compound at 500 nM, 100 nM purmorphamine, 72 hours, read-out: Activity Ranking (percent activity compared to control alkaline phosphatase activity).
In assay [2] the test system is hedgehog pathway signaling. In words: Method A: cell differentiation assay, sonic hedgehog stimulated alkaline phosphatase activity. The assay is classed as cell-based. Particulars: Mus musculus, Shh-N 2 μg/mL, 72 hours, C3H10T1/2 or M2-10B4 cells. The method, then: The ability of compounds described in the current invention to inhibit hedgehog pathway signaling was determined from the following cell differentiation assays (Method A, or Modified Method A as described below) in which cellular alkaline phosphatase activity is assessed in the presence of control vehicle or test compound, as previously described in the literature (Wu et al., Chemistry & Biology, 11: 1229-1238, 2004; Couve-Privat, et al., Cancer Research, 64; 3559-3565, 2004; Dwyer et al., J. Biological Chemistry, 282: 8959-8968, 2007) with modifications as described below.
Method A: Mouse C3H10T1/2 (CCL-226™) or M2-10B4 (CRL-1972™) cells obtained from the American Type Tissue Culture Collection (Maryland, USA) were cultured to 60-80% confluence in Dulbecco's modified Eagle's Medium (C3H10T1/2 cells) containing heat-inactivated 10% fetal bovine serum or RPMI-1640 media (M2-10B4 cells) containing heat-inactivated 10% fetal bovine serum. Cell cultures were maintained in 10 U/mL penicillin, 100 μg/mL streptomycin and 2 mM glutamine. Cells were then trypsinized, counted and plated into 96-well microtiter plates prior to incubation overnight at 37° C. in 5% CO2. […] Similarly, an IC90 was determined. […]

Each structure is given as a SMILES string.

On to `Cc1nc(-c2ccc(NC(=O)c3ccc(Cl)cc3Cl)cc2)cs1` [Example 1, 2,4-dichloro-N-(4-(2-methylthiazol-4-yl)phenyl)benzamide], for which, in assay [1], the activity at 0.5 µM lay within 0 to 25%.

Regarding `COc1cc(C(=O)Nc2ccc(-c3csc(C)n3)cc2)cc(OC)c1OC` [Example 2], the activity at 0.5 µM in assay [1] was in the range of 51 to 75%. The same measure, in the same setting: next, `COc1ccc(C(=O)Nc2ccc(-c3csc(C)n3)cc2)cc1` [Example 3]: 0 to 25%. What is called IC90 is the point of the concentration-response curve where the effect stands at 90%. A lower IC90 goes with greater potency. As a reminder, the IC50 is the midpoint of a concentration-inhibition curve. For `Cc1nc(-c2ccc(NC(=O)c3ccc(S(C)(=O)=O)cc3Cl)cc2)cs1` [Example 4, 2-chloro-4-(methylsulfonyl)-N-(4-(2-methylthiazol-4-yl)phenyl)benzamide], the activity at 0.5 µM in assay [1] was in the range of 0 to 25%. In assay [2], this compound had an IC90 of 300 nM. In addition, the half-inhibitory concentration (IC50) in assay [2] (read-out: IC50 (50% inhibition of sonic hedgehog stimulated alkaline phosphatase activity)) came to 63 nM. As to `COc1ccc(C(=O)Nc2ccc(-c3csc(C)n3)cc2)c(CN2CCOCC2)c1` [Example 5], the activity at 0.5 µM in assay [1] fell in the range of 0 to 25%.

As to `Cc1nc(-c2ccc(NC(=O)c3ccc(S(C)(=O)=O)cc3Cl)cc2)co1` [Example 6], the activity at 0.5 µM in assay [1] was in the range of 26 to 50%. Same read-out and setting: next, `Cc1nc(-c2ccc(NC(=O)c3ccc(S(C)(=O)=O)cc3Cl)cc2Cl)cs1` [Example 7, 2-chloro-N-(3-chloro-4-(2-methylthiazol-4-yl)phenyl)-4-(methylsulfonyl)benzamide]: 51 to 75%; `COc1ccc(C(=O)Nc2ccc(-c3csc(C)n3)cc2)c(Cl)c1` [Example 8]: 0 to 25%; `Cc1nc(-c2ccc(N(C)C(=O)c3ccc(S(C)(=O)=O)cc3Cl)cc2)cs1` [Example 9, 2-chloro-N-methyl-4-(methylsulfonyl)-N-(4-(2-methylthiazol-4-yl)phenyl)benzamide]: 76 to 100%.

Turning to `O=C(Nc1ccc(-c2cscn2)cc1)c1ccccc1Cl` [Example 10, 2-chloro-N-(4-(thiazol-4-yl)phenyl)benzamide], in assay [1], the activity at 0.5 µM is 26 to 50%. In the case of `CS(=O)(=O)c1ccc(C(=O)Nc2ccc(-c3cscn3)cc2)c(Cl)c1` [Example 11, 2-chloro-(4-methylsulfonyl)-N-(4-(thiazol-4-yl)phenyl)benzamide], in assay [1], the activity at 0.5 µM was 26 to 50%. As for `CC(C)(O)c1nc(-c2ccc(NC(=O)c3ccc(S(C)(=O)=O)cc3Cl)cc2)cs1` [Example 12, 2-chloro-N-(4-(2-(2-hydroxypropan-2-yl)thiazol-4-yl)phenyl)-4-(methylsulfonyl)benzamide], the activity at 0.5 µM in assay [1] was 26 to 50%. Same read-out and setting: next, `CS(=O)(=O)c1ccc(C(=O)Nc2ccc(-c3csc(CO)n3)cc2)c(Cl)c1` [Example 13, 2-chloro-N-(4-(2-(hydroxymethyl)thiazol-4-yl)phenyl)-4-(methylsulfonyl)benzamide]: 51 to 75%.

`Cc1nc(-c2ccc(NC(=O)c3ccccc3Cl)cc2)cs1` [Example 14]: in assay [1], the activity at 0.5 µM fell in the range of 0 to 25%. For the compound `Cc1nc(-c2ccc(NC(=O)c3ccccc3S(C)(=O)=O)cc2)cs1` [Example 15], the activity at 0.5 µM in assay [1] was 76 to 100%. Turning to `COc1ccc(C(=O)Nc2ccc(-c3csc(C)n3)cc2)c(C)c1` [Example 16], the activity at 0.5 µM in assay [1] is 0 to 25%.

`COc1ccc(C(=O)Nc2ccc(-c3csc(C)n3)cc2)c(F)c1` [Example 17]: the activity at 0.5 µM in assay [1] was in the range of 0 to 25%. In the case of `Cc1nc(-c2ccc(NC(=O)c3ccc(C#N)cc3)cc2)cs1` [Example 18], the activity at 0.5 µM in assay [1] was in the range of 26 to 50%.
